Source: US12691101B2, “Compound and method for preventing or treating of respiratory diseases comprising the same as an active ingredient” (YONSEI UNIVERSITY, UNIVERSITY - INDUSTRY FOUNDATION (UIF), priority 2019, dated 2026)

Biological target: T1, human wild-type (WT)-pendrin (Homo sapiens, UniProt O43511)
T1 construct: expressed in transfected cells
T1 sequence (O43511 1-780): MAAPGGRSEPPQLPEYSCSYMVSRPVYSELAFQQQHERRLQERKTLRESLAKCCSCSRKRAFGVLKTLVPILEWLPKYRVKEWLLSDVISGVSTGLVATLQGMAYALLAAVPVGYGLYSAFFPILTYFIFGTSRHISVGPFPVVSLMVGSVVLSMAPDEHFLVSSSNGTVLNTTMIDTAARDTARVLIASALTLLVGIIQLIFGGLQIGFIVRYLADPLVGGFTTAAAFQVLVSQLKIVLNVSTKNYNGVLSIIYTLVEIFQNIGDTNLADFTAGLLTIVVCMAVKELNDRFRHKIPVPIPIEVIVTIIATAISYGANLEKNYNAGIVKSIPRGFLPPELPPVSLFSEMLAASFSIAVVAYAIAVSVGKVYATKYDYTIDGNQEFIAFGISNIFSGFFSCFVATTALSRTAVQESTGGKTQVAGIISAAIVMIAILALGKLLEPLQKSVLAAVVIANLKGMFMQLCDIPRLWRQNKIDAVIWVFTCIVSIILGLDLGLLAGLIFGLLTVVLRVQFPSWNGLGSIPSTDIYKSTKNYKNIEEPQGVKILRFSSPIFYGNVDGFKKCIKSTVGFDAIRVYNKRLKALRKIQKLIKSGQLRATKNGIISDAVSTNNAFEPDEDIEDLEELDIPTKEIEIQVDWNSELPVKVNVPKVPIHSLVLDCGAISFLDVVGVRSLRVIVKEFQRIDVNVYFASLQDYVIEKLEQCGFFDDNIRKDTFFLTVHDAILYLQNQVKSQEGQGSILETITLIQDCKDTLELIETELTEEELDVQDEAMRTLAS
Assay: Pendrin-mediated Cl^−/I^− exchange activity, YFP fluorescence in CHO-K1 cells
Assay type: cell-based
Conditions: for inhibition at 30 µM: CHO-K1, 30 μM, read-out: Pendrin inhibitory activity at 30 μM (%); for IC50: compounds showing pendrin inhibitory activity of 50% or more at 30 μM, read-out: IC50

Row | Compound | inhibition at 30 µM [%] | IC50 [µM] | Pendrin inhibitory activity at 30 μM (%)
1 | CC(C)(C)c1ccc(C(=O)NC(=Cc2ccsc2)C(=O)O)cc1 [G8, 2-(4-(tert-butyl)benzamido)-3-(thiophen-3-yl)acrylate] | 68.8 | 20.2 ± 2.12 | –
2 | CC(C)(C)NS(=O)(=O)c1ccc(C2=NC(=Cc3cccs3)C(=O)O2)cc1 [F35, N-(tert-butyl)-4-(5-oxo-4-(thiophen-2-ylmethylene)-4,5-dihydrooxazol-2-yl)benzene sulfonamide] | 87.2 | 11.6 ± 1.25 | –
3 | CCCCc1ccc(C(=O)NC(=Cc2ccc[nH]2)C(=O)OC)cc1 [G11, Methyl 2-(4-butylbenzamido)-3-(1H-pyrrol-2-yl)acrylate] | 3.5 | – | –
4 | CC(C)Cc1ccc(C2=NC(=Cc3ccsc3)C(=O)O2)cc1 [F15, 2-(4-Isobutylphenyl)-4-(thiophen-3-ylmethylene)oxazol-5 (4H)-one] | 3.8 | – | –
5 | COc1cc(C=C2N=C(c3ccccc3OC)OC2=O)ccc1OCc1c(C)noc1C [F133, 4-(4-((3,5-Dimethylisoxazol-4-yl)methoxy)-3-methoxybenzylidene)-2-(2-methoxyphenyl)oxazol-5 (4H)-one] | 4.1 | – | –
6 | COc1ccccc1C1=NC(=Cc2sc3nc(C)nc(C)c3c2C)C(=O)O1 [F113, 2-(2-Methoxyphenyl)-4-((2,4,5-trimethylthieno[2,3-d]pyrimidin-6-yl)methylene) oxazol-5(4H)-one] | 3.5 | – | –
7 | CC(C)(C)c1ccc(C(=O)NC(=Cc2cccs2)C(=O)O)cc1 [G3, 2-(4-(tert-butyl)benzamido)-3-(thiophen-2-yl)acrylate] | 55.6 | 26.8 ± 2.54 | –
8 | CCCCc1ccc(C2=NC(=Cc3ccc[nH]3)C(=O)O2)cc1 [F26, 4-((1H-pyrrol-2-yl)methylene)-2-(4-butylphenyl)oxazol-5(4H)-one] | 69.9 | 12.8 ± 1.55 | –
9 | CCc1sc(C2=NC(=Cc3cccs3)C(=O)O2)cc1C [F103, 2-(5-Ethyl-4-methylthiophen-2-yl)-4-(thiophen-2-ylmethylene)oxazol-5(4H)-one] | 3.7 | – | –
10 | CCN(CC)S(=O)(=O)c1ccc(C2=N/C(=C3\C=CC=CN3C)C(=O)O2)cc1 [F127, N,N-diethyl-4-(4-(1-methylpyridin-2(1H)-ylidene)-5-oxo-4,5-dihydrooxazol-2-yl)benzenesulfonamide] | 3.6 | – | –
11 | CC(C)(C)c1ccc(C2=NC(=Cc3ccccc3OS(=O)(=O)c3ccccc3)C(=O)O2)cc1 [F80, 2-((2-(4-(tert-butyl)phenyl)-5-oxooxazol-4(5H)-ylidene)methyl)phenylbenznesulfonate] | 1.9 | – | –
12 | CCCCCCc1ccc(C2=NC(=Cc3ccc[nH]3)C(=O)O2)cc1 [F147, 4-((1H-pyrrol-2-yl)methylene)-2-(4-hexylphenyl)oxazol-5(4H)-one] | 3.4 | – | –
13 | Cc1ncsc1C=C1N=C(c2ccc(C(C)(C)C)cc2)OC1=O [F8, 2-(4-(tert-butyl)phenyl)-4-((4-methylthiazol-5-yl)methylene)oxazol-5 (4H)-one] | 72.5 | 20.5 ± 1.69 | –
14 | CCCCCc1ccc(C(=O)NC(=Cc2ccco2)C(=O)O)cc1 [G35, 3-(Furan-2-yl)-2-(4-pentylbenzamido)acrylate] | 94 | 6.1 ± 0.88 | –
15 | O=C(O)C(=Cc1ccco1)NC(=O)c1ccc(Br)cc1 [G16, 2-(4-Bromobenzamido)-3-(furan-2-yl)acrylate] | – | – | 1.8
16 | Cc1nn(-c2ccccc2)c(Cl)c1C=C1N=C(c2cccc(Br)c2)OC1=O [F71, 2-(3-Bromophenyl)-4-((5-chloro-3-methyl-1-phenyl-1H-pyrazol-4-yl)methylene)oxazol-5(4H)-one] | 4.4 | – | –
17 | COc1ccccc1C1=NC(=Cc2ccc(N(C)C)s2)C(=O)O1 [F114, 4-((5-(Dimethylamino)thiophen-2-yl)methylene)-2-(2-methoxyphenyl)oxazol-5(4H)-one] | 3.9 | – | –
18 | O=C(O)C(=Cc1ccco1)NC(=O)c1ccc(Br)cc1 [G21, 2-(4-Bromobenzamido)-3-(furan-2-yl)acrylate] | – | – | 4.1
19 | CCN(CC)S(=O)(=O)c1cccc(C2=NC(=Cc3cnn(C)c3)C(=O)O2)c1 [F131, N,N-diethyl-3-(4-((1-methyl-1H-pyrazol-4-yl)methylene)-5-oxo-4,5-dihydrooxazol-2-yl)benzenesulfonamide] | 2.1 | – | –
20 | CCCCc1ccc(C2=NC(=Cc3cccs3)C(=O)O2)cc1 [F53, 2-(4-Butylphenyl)-4-(thiophen-2-ylmethylene)oxazol-5(4H)-one] | 3.1 | – | –
21 | Cn1cc(C=C(NC(=O)c2ccc(C(C)(C)C)cc2)C(=O)O)cn1 [G10, 2-(4-(tert-butyl)benzamido)-3-(1-methyl-1H-pyrazol-4-yl)acrylate] | 4.3 | – | –
22 | O=C1OC(c2ccc(N3CCCC3=O)cc2)=NC1=Cc1cccs1 [F98, 2-(4-(2-oxopyrrolidin-1-yl)phenyl)-4-(thiophen-2-ylmethylene)oxazol-5 (4H)-one] | 3.3 | – | –
23 | Cc1ncsc1C=C(NC(=O)c1ccc(C(C)(C)C)cc1)C(=O)O [G9, 2-(4-(tert-butyl)benzamido)-3-(4-methylthiazol-5-yl)acrylate] | 3.9 | – | –
24 | COC(=O)C(=Cc1ccc[nH]1)NC(=O)c1ccc(C(C)(C)C)cc1 [G23, Methyl-2-(4-(tert-butyl)benzamido)-3-(1H-pyrrol-2-yl)acrylate] | – | – | 2.7
25 | O=C1OC(c2ccccc2)=NC1=Cc1ccccc1[N+](=O)[O-] [F57, 4-(2-Nitrobenzylidene)-2-phenyloxazol-5(4H)-one] | 16.1 | – | –

Further lines, results first:

Row | inhibition at 30 µM [%] | IC50 [µM] | Pendrin inhibitory activity at 30 μM (%) | Compound
26 | 3.5 | – | – | O=C1OC(c2ccc(-c3ccccc3)cc2)=NC1=Cc1cccs1 [F37, 2-([1,1′-biphenyl]-4-yl)-4-(thiophen-2-ylmethylene)oxazol-5 (4H)-one]
27 | 3.4 | – | – | COc1ccc2[nH]c(=O)c(C=C3N=C(c4ccccc4)OC3=O)cc2c1 [F84, 4-((6-Methoxy-2-oxo-1,2-dihydroquinolin-3-yl)methylene)-2-phenyloxazol-5(4H)-one]
28 | 3.1 | – | – | COc1ccc(C2=NC(=Cc3ccc(C(=O)O)cc3)C(=O)O2)cc1 [F60, 4-((2-(4-Methoxyphenyl)-5-oxooxazol-4(5H)-ylidene)methyl)benzoate]
29 | 82.9 | 2.8 ± 0.26 | – | CC(C)Cc1ccc(C2=NC(=Cc3ccc[nH]3)C(=O)O2)cc1 [F20, 4-((1H-pyrrol-2-yl)methylene)-2-(4-isobutylphenyl)oxazol-5 (4H)-one]
30 | 2.7 | – | – | CC(=O)n1cc(C=C2N=C(c3ccc(C(C)(C)C)cc3)OC2=O)c(-c2ccccc2)n1 [F82, 4-((1-Acetyl-3-phenyl-1H-pyrazol-4-yl)methylene)-2-(4-(tert-butyl)phenyl)oxazol-5 (4H)-one]
31 | 2.3 | – | – | CC(=O)Nc1ccc(C=C2N=C(c3ccc(OC(C)C)cc3)OC2=O)cc1 [F129, N-(4-((2-(4-isopropoxyphenyl)-5-oxooxazol-4(5H)-ylidene)methyl)phenyl)acetamide]
32 | 54.8 | 20.1 ± 2.46 | – | CC(C)Cc1ccc(C2=NC(=Cc3ccco3)C(=O)O2)cc1 [F19, 4-(Furan-2-ylmethylene)-2-(4-isobutylphenyl)oxazol-5 (4H)-one]
33 | 3.8 | – | – | O=C1OC(c2ccc(Oc3ccccc3)cc2)=NC1=Cc1cccs1 [F95, 2-(4-Phenoxyphenyl)-4-(thiophen-2-ylmethylene)oxazol-5(4H)-one]
34 | 3.1 | – | – | CC(C)c1ccc(C2=NC(=Cc3csc4ccccc34)C(=O)O2)cc1 [F16, 4-(Benzo[b]thiophen-3-ylmethylene)-2-(4-isopropylphenyl)oxazol-5(4H)-one]
35 | 2.5 | – | – | CC(=O)Oc1ccc(C=C2N=C(c3ccc(C(C)(C)C)cc3)OC2=O)cc1 [F58, 4-((2-(4-(tert-butyl)phenyl)-5-oxooxazol-4 (5H)-ylidene)methyl)phenylacetate]
36 | 3.2 | – | – | Cc1ccc(/C=C2\N=C(c3ccc(C4=N/C(=C\c5ccc(C)o5)C(=O)O4)cc3)OC2=O)o1 [F79, 2,2′-(1,4-phenylene)bis(4-((5-methylfuran-2-yl)methylene)oxazol-5(4H)-one)]
37 | 1.9 | – | – | Cc1ccc(C2=NC(=Cc3cn(S(=O)(=O)N(C)C)c4ccccc34)C(=O)O2)cc1 [F76, N,N-Dimethyl-3-((5-oxo-2-(p-tolyl)oxazol-4(5H)-ylidene)methyl)-1H-indole-1-sulfonamide]
38 | 2.8 | – | – | CC(=O)n1cc(C=C2N=C(c3ccc(Br)cc3)OC2=O)c2ccccc21 [F72, 4-((1-Acetyl-1H-indol-3-yl)methylene)-2-(4-bromophenyl)oxazol-5(4H)-one]
39 | 3.4 | – | – | CC(=O)Nc1ccc(C2=NC(=Cc3ccc(-n4cncn4)cc3)C(=O)O2)cc1 [F134, N-(4-(4-(4-(1H-1,2,4-thiazol-1-yl)benzylidene)-5-oxo-4,5-dihydrooxazol-2-yl)phenyl)acetamide]
40 | 92.3 | – | – | CC(C)(C)c1ccc(C2=NC(=Cc3cccnc3)C(=O)O2)cc1 [F40, 2-(4-(tert-butyl)phenyl)-4-(pyridin-3-ylmethylene)oxazol-5(4H)-one]
